From PubChem BioAssay AID179 (DTP/NCI, 2004)
Several values for one entry are separate records, joined by “and”; a condition that tells them apart may be missing. Equal values may be shown once. Activity calls are given as the source filed them.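 The calls were made as follows: active = compounds giving half or more protection of infected cells from virus-caused growth loss, again on retest; inactive = the rest.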

System: CEM cells HIV-1 protection, formazan growth assay
Assay: NCI AIDS Antiviral Assay
Conditions: for IC50: measured here: growth of uninfected CEM cells
In short: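 Category rules: moderately active means at least 50% protection on retest, and confirmed active means 100% protection reproducibly. The underlying data came from a formazan growth assay in HIV-1-infected CEM cells.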

Compound	EC50	IC50	outcome
O=c1oc2ncccc2n1Cc1ccc([N+](=O)[O-])cc1	> 200 µM	> 200 µM	
CS1(=O)=NC(=N)c2ccccc21 (configuration not stated)			inactive
CC(C)C1CCC/C=C/C=C/C=C/C=C/C(OC2OC(C)C(O)C(N)C2O)CC2OC(O)(CC(O)CC(O)C(O)CCC(=O)O1)CC(O)C2C(=O)O (configuration not stated)	> 339 µM	> 339 µM	
CSc1ncnc2c1ncn2CCC(=O)O	> 200 µM	> 200 µM	
C=C1C(O)O[C@@H]2O[C@@]3(C)CC[C@H]4[C@H](C)CCC1[C@@]24O3 (some centres not stated)	> 200 µM	95.5 µM	
N#CC(C#N)c1ccc(C(=O)N2CCC[C@H]2CO)cc1			inactive
CC(=O)NNc1nc(C)c(C(/C=C/c2cccc([N+](=O)[O-])c2)=N/NC(=S)NN)s1	> 72.4 µM	> 72.4 µM	
O=[N+]([O-])c1ccc2c(c1)-c1ccccc1S2(=O)=O			inactive
COc1ccc(NC(=O)C(C)Oc2ccc(OCC3CCCCC3)cc2)cc1 (configuration not stated)	> 26.3 µM	> 26.3 µM	
O=C1C(=Cc2ccc(Cl)c(Cl)c2)C([O-])=C([P+](c2ccccc2)(c2ccccc2)c2ccccc2)C([O-])=C1[P+](c1ccccc1)(c1ccccc1)c1ccccc1	> 100 µM	1.23 µM	
O=P(O)(O)C1(P(=O)(O)O)CC1	> 251 µM	> 251 µM	
COC(=O)CN(CC(=O)NCCCBr)C1CCCCC1N(CC(=O)OC)CC(=O)OC (configuration not stated)	> 200 µM	> 200 µM	
O=C(OCCN=c1c2ccccc2ccc2ccccc12)c1cc([N+](=O)[O-])cc([N+](=O)[O-])c1	> 200 µM	158 µM	
CSc1nc(=O)n(CCC#N)nc1SC	> 200 µM	29.5 µM	
COc1ccc2c(c1)CCCN2S(=O)(=O)c1ccccc1[N+](=O)[O-]	> 200 µM	21.4 µM	
CN1C(=O)[C@@]2(C=CC3(CC2)OCCO3)c2ccccc21	> 200 µM	35.5 µM	
O=C1NC(=O)c2ccccc2/C1=C/c1ccc2c(c1)OCO2	> 200 µM	2.09 µM	
O=S1c2ccccc2N=C(c2ccc3ccccc3c2)CC1c1ccccc1 (configuration not stated)	> 19.1 µM	> 19.1 µM	
N#CC(C(=O)/C(=N/Nc1nc(=S)[nH]n1N)C(C#N)c1ccccc1)c1ccccc1 (configuration not stated)	> 17.4 µM	> 17.4 µM	
CC1(C(=O)O)CC(C(=O)O)=Nn2c3ccccc3c3cccc1c32 (configuration not stated)	> 324 µM	> 324 µM	
COc1ccc2[nH]c3cc4c(=O)c5cc(OC)ccc5[nH]c4cc3c(=O)c2c1	> 72.4 µM	> 72.4 µM	
CC(C)N(C(=O)C12C3C4C5C3C1(C(=O)N(C(C)C)C(C)C)C5(C#N)C42)C(C)C (configuration not stated)	> 93.3 µM	> 93.3 µM	

Compound	EC50	IC50	outcome
O=C(c1ccccc1)[C@H]1Nc2ccc(Cl)cc2[C@H]2OCCC[C@@H]12	> 11.5 µM	> 11.5 µM	
O=C1C(Cl)C(c2ccc([N+](=O)[O-])cc2)N1n1cnc2ccccc2c1=O (configuration not stated)	> 7.41 µM	> 7.41 µM	
CN(Nc1cc(=O)[nH]c(=O)[nH]1)c1ccccc1	> 200 µM	> 200 µM	
CCOC(=O)C(NC(=O)CC(C)C)(Nc1ccc(S(=O)(=O)Nc2nc(C)cc(C)n2)cc1)C(F)(F)F (configuration not stated)	> 200 µM	> 200 µM	
Nc1cc(Cl)ccc1N1C(=O)C=CC1=O			inactive
O=C1OC(c2cccc(C(F)(F)F)c2)c2ccc3ccccc3c21 (configuration not stated)			inactive
CCOC(=O)C(=O)Nc1cccc(Cl)c1C	> 741 µM	> 741 µM	
O=C(CCc1nc(=S)[nH][nH]1)Nc1cc(Cl)ccc1Cl	> 407 µM	> 407 µM	
CCCSc1nc(-c2ccc(OC)cc2)c(C#N)c(=O)n1C1OC(COC(C)=O)C(OC(C)=O)C(OC(C)=O)C1OC(C)=O (configuration not stated)	> 200 µM	> 200 µM	
COC(=O)c1noc2c1CSc1ccccc1-2	> 263 µM	123 µM	
O=c1n(-c2ccccc2)c(=O)n2n1C1C3C4C5C3C2C5(F)C41 (configuration not stated)	> 200 µM	> 200 µM	
CCC1(CC=C(C)C)Oc2cccnc2-n2cccc2C1=O (configuration not stated)	> 200 µM	117 µM	
COC(=O)C1=C(C(=O)OC)P2(C)(C)OC(c3ccccc3)CN2C1(c1ccccc1)c1ccccc1 (configuration not stated)	> 36.3 µM	4.79 µM	
CCCCCCCCCCCCCCCCCCOC(COP(=O)(O)OCC1OC(n2cc(F)c(=O)[nH]c2=O)CC1O)COP(=O)(O)OCC1OC(n2cc(C)c(=O)[nH]c2=O)CC1N=[N+]=[N-] (configuration not stated)	> 5.75 µM	0.0501 µM	
Cc1ccc(C2=Nc3c(c(C)nn3-c3ccccc3)N=C(C(=O)O)C2)cc1	> 200 µM	75.9 µM	
COc1ccc(/C=N/NC(=O)c2ccc(OCc3nc4ccccc4[nH]3)cc2)cc1	178 µM	> 200 µM	
CC(C)OC(=S)Nc1ccc(Cl)c(/C=N/OC(C)(C)C)c1	> 24 µM	23.4 µM	
Nc1ccccc1C(=O)/C=C/c1c(O)ccc2ccccc12			inactive
COc1ccc(N2C(=O)/C(=C/c3ccc(N(CCC#N)CCC#N)cc3C)N=C2/C=C\c2ccccc2)cc1	> 14.1 µM	> 14.1 µM	
CCCCCCCCCCN=Cc1c(O)c(O)c(CCC)c2cc(C)c(-c3c(C)cc4c(CCC)c(O)c(O)c(C=NCCCCCCCCCC)c4c3O)c(O)c12			inactive
O=C(CC(=O)N1CCN(c2ccccn2)CC1)N1CCN(c2ccccn2)CC1	> 97.7 µM	> 97.7 µM	
COCOc1cc(OCOC)cc(C(=O)Oc2ccccc2)c1	> 200 µM	> 200 µM	

Compound	EC50	IC50	outcome
O=C(O)c1nc2cc(C(F)(F)F)ccc2nc1Nc1ccc(F)cc1	> 200 µM	7.76 µM	
O=CNc1ccc(S(=O)(=O)c2ccc(NC=O)cc2)cc1			inactive
Cc1ccc(S(=O)OC23CC4CC(CC(C4)C2)C3)cc1 (configuration not stated)			inactive
O=C1CC(CC(O)C(O)C(O)CO)CC(=O)N1 (configuration not stated)	> 200 µM	> 200 µM	
CCN1C[C@]2(C)CCC(OC)C34[C@@H]5C[C@@H]6C(OC)[C@@H]5[C@@]5(C[C@@H]6OC)OCO[C@]5([C@H]13)[C@@H](OC(C)=O)[C@@H]42 (some centres not stated)			inactive
CC(=O)OC1CCC2(C)CC3C=CC2(OO3)C1(C)C (configuration not stated)	> 200 µM	10.7 µM	
Nc1ncnc2c1ncn2C1C[C@H](O)[C@]2(CO)C[C@H]12 (some centres not stated)	> 50.1 µM	> 50.1 µM	
COc1cccc(C2c3cc4c(cc3OC(NNC(N)=O)C2C)OCO4)c1O (configuration not stated)	> 200 µM	1.12 µM	
CCOC(=O)c1cnc2c(cnn2CC)c1NN=C(C)C	> 200 µM	117 µM	
Cc1nc2n(c1C(N)=O)CCS2	> 200 µM	> 200 µM	
Cc1ccccc1CN1CC=c2ccccc2=N1	51.3 µM	129 µM	
CN(C1=NCCO1)c1cccc2ccccc12	> 200 µM	129 µM	
O=C1NC(N/N=C\C(O)C(O)C(O)C(O)CO)=N/C1=C/c1ccc(Cl)cc1 (configuration not stated)	> 200 µM	61.7 µM and 37.2 µM	
CCN1CCC(O)(c2ccc(Oc3ccc(C)cc3)cc2)C(C(=O)c2ccc(Oc3ccc(C)cc3)cc2)C1 (configuration not stated)	> 200 µM	3.8 µM	
OC1=CN=C(C2CC2)Oc2ccccc21	> 178 µM	117 µM	
N#Cc1c(NC(=S)Nc2ccccc2)sc2c1CCCC2	> 200 µM	> 200 µM	
Cc1c([N+](=O)[O-])c(=O)oc2cc3occc(=O)c3cc12	> 36.3 µM	18.2 µM	
CC(=O)CC(=O)N1CCOC1=O	> 200 µM	36.3 µM	
Nc1ccc(S(=O)(=O)NNc2nc(N3CCCCC3)nc(N3CCCCC3)n2)cc1	> 200 µM	> 200 µM	
Cc1cccc2c(NCCN(C)C)c3cccc(C(=O)NCCN(C)C)c3nc12	> 0.2 µM	0.195 µM	
c1ccc2c(c1)c1ccccc1n2-n1c2ccccc2c2ccccc21	> 200 µM	132 µM	
CC(C)/C(Cl)=N\OC(=O)Nc1cccc(Cl)c1	> 200 µM	5.01 µM	

Compound	EC50	IC50	outcome
O=C(CC(c1ccc2c(c1)OCO2)N1CCN(C(CC(=O)c2ccc(Br)cc2)c2ccc3c(c2)OCO3)CC1)c1ccc(Br)cc1 (configuration not stated)	> 200 µM	> 200 µM	
O=C1C=CC(=O)C2C1Cc1ccccc1C2c1ccccc1 (configuration not stated)			inactive
COc1ccc(C2SC(=S)N(Cc3ccc(Cl)cc3)N2Cc2ccc(Cl)cc2)cc1 (configuration not stated)	> 200 µM	34.7 µM	
CC1C2Cc3ccc(O)cc3C1(C)CCN2C (configuration not stated)	> 129 µM	> 129 µM	
COc1ccc(C=C(C(C)=O)C(C)=O)cc1	> 437 µM	58.9 µM	
O=C(CC1=NC2NN(c3ccccc3)C(=O)C2=C1CC(=O)c1ccccc1)c1ccccc1 (configuration not stated)	> 575 µM	174 µM	
CN[C@@H]1C[C@H]2O[C@@](C)([C@@H]1OC)n1c3ccccc3c3c4c(c5c6ccccc6n2c5c31)C(=O)N[C@@H]4O	> 38.9 µM	0.0309 µM	
C=C1[C@H](OC(=O)C(C)C)[C@@H](OC(C)=O)[C@@H](OC(C)=O)C(C)(C)[C@@H]2O[C@H]2[C@@H](C)C(=O)[C@@]2(OC(C)=O)C[C@@](C)(OC(C)=O)[C@H](OC(C)=O)[C@@H]2[C@H]1OC(C)=O	> 200 µM	> 200 µM	
C/C=C(\C)C(=O)c1c(O)cc(O)c2ccc(=O)oc12	> 200 µM	112 µM	
Cc1c([N+](=O)[O-])c(=O)oc2ccc3c(=O)ccoc3c12	> 50.1 µM	8.71 µM	
CN(C)N1C(=O)c2c(Cl)c(Cl)c(Cl)c(Cl)c2C1=O	> 200 µM	91.2 µM	
Cc1cc(=O)oc2c1cc(OCC(=O)OCCN1CCCCC1)c1occ(C)c12			inactive
Nc1ncnc2c1ncn2C1OC(CSC(F)(F)F)C(O)C1O (configuration not stated)	> 708 µM	112 µM	
CCCCN(CCCC)C(=O)C(=O)C(C(=O)c1ccc(OC)cc1)c1ccc(OC)cc1 (configuration not stated)	> 11.7 µM	> 11.7 µM	
NC1CCCCCCC1	> 200 µM	> 200 µM	
N#CCCN(C1=NN(C(=O)CC(=O)Nc2cccc(Cl)c2)C(c2ccccc2)C1)c1ccccc1Cl (configuration not stated)	> 69.2 µM	> 69.2 µM	
O=C(C=P(c1ccccc1)(c1ccccc1)c1ccccc1)C1(C(=O)C=P(c2ccccc2)(c2ccccc2)c2ccccc2)CC1	> 200 µM	9.55 µM	
Cc1ccc(-c2n[nH]c(=O)n2N2C(=O)c3ccccc3C2=O)cc1	> 200 µM	> 200 µM	
C(CCC[Te][Te]CCCCCCOC1CCCCO1)CCOC1CCCCO1 (configuration not stated)			inactive
